Columns and labels:
[1] = target: T1, ATP-dependent translocase ABCB1 (Homo sapiens, UniProt P08183); test: TP_TRANSPORTER: uptake in K562 and K562/ADR cell; format: functional, cell-based
[2] = target: T1, ATP-dependent translocase ABCB1; test: TP_TRANSPORTER: transepithelial transport (basal to apical) in Caco-2 cells; format: functional, cell-based

T1 sequence (P08183 whole entry): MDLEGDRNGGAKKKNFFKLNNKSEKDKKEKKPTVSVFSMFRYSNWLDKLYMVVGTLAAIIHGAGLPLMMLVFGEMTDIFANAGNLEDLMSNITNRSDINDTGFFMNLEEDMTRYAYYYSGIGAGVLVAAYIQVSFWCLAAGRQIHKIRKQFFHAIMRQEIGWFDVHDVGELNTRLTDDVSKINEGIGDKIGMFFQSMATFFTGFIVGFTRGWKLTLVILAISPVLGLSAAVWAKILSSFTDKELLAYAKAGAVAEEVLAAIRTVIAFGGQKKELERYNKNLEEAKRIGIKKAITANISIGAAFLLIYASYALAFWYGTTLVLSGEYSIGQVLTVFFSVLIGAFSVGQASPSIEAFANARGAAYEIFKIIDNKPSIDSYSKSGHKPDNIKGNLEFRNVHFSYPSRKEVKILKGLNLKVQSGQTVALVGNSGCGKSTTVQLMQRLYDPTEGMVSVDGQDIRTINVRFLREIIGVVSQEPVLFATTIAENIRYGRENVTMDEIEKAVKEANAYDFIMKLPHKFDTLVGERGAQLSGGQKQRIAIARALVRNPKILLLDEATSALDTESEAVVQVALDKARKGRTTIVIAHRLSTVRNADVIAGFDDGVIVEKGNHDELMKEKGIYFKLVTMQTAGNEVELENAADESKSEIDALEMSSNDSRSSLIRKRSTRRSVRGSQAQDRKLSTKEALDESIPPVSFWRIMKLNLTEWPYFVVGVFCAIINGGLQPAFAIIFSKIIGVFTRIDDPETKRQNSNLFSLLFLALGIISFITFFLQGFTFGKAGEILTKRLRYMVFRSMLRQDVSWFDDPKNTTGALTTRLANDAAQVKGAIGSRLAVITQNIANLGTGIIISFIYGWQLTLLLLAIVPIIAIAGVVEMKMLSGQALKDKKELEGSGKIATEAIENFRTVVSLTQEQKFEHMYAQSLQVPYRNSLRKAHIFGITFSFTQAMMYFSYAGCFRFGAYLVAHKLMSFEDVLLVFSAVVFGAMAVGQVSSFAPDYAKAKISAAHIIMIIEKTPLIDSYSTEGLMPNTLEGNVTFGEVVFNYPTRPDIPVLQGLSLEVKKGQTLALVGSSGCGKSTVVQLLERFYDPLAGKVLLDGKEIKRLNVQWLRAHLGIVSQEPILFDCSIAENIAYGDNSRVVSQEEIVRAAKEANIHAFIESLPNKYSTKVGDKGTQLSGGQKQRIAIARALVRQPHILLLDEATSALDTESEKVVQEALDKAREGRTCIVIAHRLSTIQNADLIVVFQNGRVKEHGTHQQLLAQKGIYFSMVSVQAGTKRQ

Row | SMILES | Activity [1] | Activity [2]
1 | CCCC(=O)Nc1ccc(OCC(O)CNC(C)C)c(C(C)=O)c1 (stereo not given) [ACEBUTOLOL] | substrate [+] | substrate [+]
2 | CCN(CC)C(=O)Nc1ccc(OCC(O)CNC(C)(C)C)c(C(C)=O)c1 (stereo not given) [CELIPROLOL] | substrate [+] | –
3 | CC(C)(C)NCC(O)COc1cccc2c1CC(O)C(O)C2 (stereo not given) [NADOLOL] | substrate [+] | –
4 | CC(C)(C)NC[C@H](O)COc1nsnc1N1CCOCC1 [TIMOLOL] | substrate [+] | –

Reference: ChEMBL document CHEMBL2074057, “Active secretion of drugs from the small intestinal epithelium in rats by P-glycoprotein functioning as an absorption barrier” (J Pharm Pharmacol, 1996)
